# Laboratory results reported in patent US20080300182A1, “Eye disease treating agent and method for treating eye disease” (NIDEK CO., LTD., priority 2005, published 2008).
# Ends that are not written are not given here.
# How the values were obtained:
# [1] = tested on: cultured rat Muller cell; assay: IL-6 production acceleration effect in cultured Muller cell (Test Example 1; IL-6 measured by B9 cell bioassay); assay type: cell-based; details: 24 hours after addition of PACAP 38 (10^−12 M, 10^−9 M to 10^−6 M), vs no addition, p<0.01
# Experimental: Wister/ST rats of 14 days of age (20 animals) were sacrificed by bleeding through the cutting of abdominal aorta under diethyl ether anesthesia. The 40 eyeballs were immediately enucleated and soaked in Dulbecco's modified minimum essential medium (DMEM) containing 25 mM HEPES and antibiotics (penicillin 100 U/ml, streptomycin 100 μg/ml, amphotericin B 0.25 μg/ml), one night at room temperature under shade. Next, the eyeballs were transferred into DMEM containing 0.1% trypsin and 70 U/ml collagenase and incubated at 37° C. for 60 minutes. Thereafter, retinas were removed from the eyeballs and transferred into DMEM supplemented with antibiotics and 10% FBS (medium for culturing use) (8 retinas/10 ml DMEM). The retinas were dispersed and suspended until they became small aggregates through the pipetting using a Pasteur pipette having thinned tip. This cell suspension was seeded onto a polystyrene dish (Asahi Techno Glass) and cultured by keeping at 37° C. under an environment of 5% CO2/95% air. […]
# The IL-6 concentration in the thus recovered Muller cell culture supernatant was measured using B9 cell which is a hybridoma sub-clone of an IL-6-dependent mouse. […] Regarding the bioassay of IL-6, growth of B9 cell was determined as the fluorescence intensity by Alamar Blue.
# [2] = tested on: Muller cell of the retina; assay: IL-6 expression in retinal tissue after administration into the vitreous body, anti-IL-6 immunostaining (Test Example 3); assay type: in vivo, rat; details: 10^−11 mol PACAP
# Experimental: The PACAP 38 was dissolved in sterile physiological saline to a concentration of 3.3 nmol/ml. This was stored under ice-cooling until just before the administration.
# Male Wister/ST rats of 8 weeks of age were used in this test. After anesthesia by intraperitoneal administration of pentobarbital sodium, 3 μl per one eye of the administration liquid was injected from about 1 mm behind the limbus using a Hamilton glass syringe equipped with a 30G needle, that is, the liquid was injected into the vitreous body in such a manner that 10^−11 mol of PACAP reached the retina. After 1, 2, 3 and 7 days of the PACAP administration, each animal was sacrificed by bleeding through the cutting of abdominal aorta under diethyl ether inhalation anesthesia, and then both eyeballs were enucleated, and fixed with ice-cold 4% paraformaldehyde-0.1 M phosphate buffer (pH 7.4). The fixed eyeballs were subjected to sucrose replacement and then freeze-embedded to prepare frozen sections of 10 μm in thickness. By applying fluorescence immunostaining to each of the frozen sections using an anti-IL-6 antibody, expression of IL-6 in the retina was observed.
# [3] = tested on: retinal ganglion cell; assay: Kainic acid-induced retinal ganglion cell death model, number of cells remaining in the ganglion cell layer (Test Example 4); assay type: in vivo, rat
# Experimental: Retinal nerve protecting effect was examined using a kainic acid-induced retinal ganglion cell death animal model.
# Male Wister/ST rats of 8 weeks of age were used in the test. After anesthesia by intraperitoneal administration of pentobarbital sodium, PACAP 38 (10 μmol) dissolved in sterile physiological saline or the administration solvent (physiological saline) as the negative control was injected once into the vitreous body in the same manner as in Test Example 3. Two days after the PACAP administration, kainic acid (5 nmol) was injected once into the vitreous body of each animal under anesthesia by a mixed liquid of ketamine and seractal. 7 days after the kainic acid administration, all animals were sacrificed by bleeding through the cutting of abdominal aorta under diethyl ether inhalation anesthesia and their eyeballs were enucleated. The enucleated eyeballs were fixed by soaking in a 1% formaldehyde-1.25% glutaraldehyde mixed fixing liquid. The fixed eyeballs were embedded in paraffin, and then retinal tissue sections of 4 μm in thickness traversing the optic disc were prepared and subjected to hematoxylin eosin staining. Effect of PACAP was judged by counting the number of cells remaining in the ganglion cell layer within a region of from 0.5 to 1.7 mm from the optic disc of each tissue specimen. […]
# [4] = tested on: retinal ganglion cell; assay: Kainic acid-induced retinal ganglion cell death model, retinal tissue pNF-H content by sandwich ELISA (Test Example 5); assay type: in vivo, rat; details: 7 days after exposure
# Description: In order to clarify whether or not the IL-6 which is expressed in a delayed manner in Muller cell (Test Example 3) is concerned in the retinal ganglion cell death inhibitory effect of PACAP confirmed in Test Example 4, this was verified using the same animal model and using neurofilament (phosphorylated neurofilament-H; pNF-H) protein in the retinal tissue as the index. It is known that pNF-H is a protein which is specifically expressed in the retinal ganglion cell, and that the content of this protein in the retinal tissue can be used as a quantitative index for estimating degree of the retinal ganglion cell death.
# A group in which 10 μmol of PACAP 38 is injected into the vitreous body 2 days before the kainic acid exposure in the same manner as in Test Example 4 (pretreatment group) and another group in which the same amount of PACAP is injected simultaneously with kainic acid (simultaneous treatment group) were set up as the test groups. The retinal tissue was collected 7 days after the kainic acid exposure, and the pNF-H protein was extracted. Amount of the pNF-H protein in retinal tissue was measured by the sandwich ELISA.
substance,measurement,setting,value
pituitary adenylate cyclase-activating polypeptide (HSDGIFTDSYSRYRKQMAVKKYLAAVLGKRYKQRVKNK; ends and bridges not checked; listed as Ovis sp.) [PACAP 38],IL-6 concentration in the culture liquid,[1],significantly increased
same,Expression of IL-6 in the retina,[2]; 1 day after intravitreal administration,not found
same,IL-6-positive cell in the retina,[2]; 2 days after intravitreal administration,frequently observed
same,IL-6-positive cell in the retina,[2]; 3 days after intravitreal administration,frequently observed
same,Expression of IL-6 in the retina,[2]; 7 days after intravitreal administration,hardly observed
same,Average value of the number of cells remaining in the ganglion cell layer,"[3]; PACAP 38 (10 μmol) intravitreal 2 days before kainic acid (5 nmol), 7 days after kainic acid, 0.5 to 1.7 mm from optic disc",34.8 cells/mm
same,inhibition of the reduction of the number of cells caused by kainic acid,"[3]; PACAP 38 (10 μmol) intravitreal 2 days before kainic acid, vs physiological saline control, p<0.05",found with a significance
same,reduction of the amount of pNF-H protein in the retinal tissue induced by kainic acid,"[4]; pretreatment group: 10 μmol PACAP 38 intravitreal 2 days before kainic acid, vs saline, p<0.01",inhibited with a significance
same,effect to inhibit reduction of the amount of pNF-H,[4]; simultaneous treatment group: 10 μmol PACAP 38 injected simultaneously with kainic acid,completely absent
